Results taken from PMC4445328, “Azasugar inhibitors as pharmacological chaperones for Krabbe disease” (Chemical Science, 2015).
Read-outs that look alike come from different tables or passages of the source.

Columns and labels:
GALC [1] = biological target: T1, GALC (Mus musculus, UniProt P54818); assay: Differential scanning fluorimetry (DSF) thermal shift of wild-type GALC; assay type: binding; conditions: for ΔTm at 5000 µM / ΔTm1 pH 7.4 (first transition of double sigmoid melt curve) / ΔTm2 pH 7.4 (second transition of double sigmoid melt curve): 5.0 mM compound; for ΔTm at 5000 µM: triplicate; for additional increase of Tm over DGJ, DIL and IGL / increase of Tm of wild-type enzyme: pH 4.6, 5 mM; for ΔTm1 pH 7.4 (first transition of double sigmoid melt curve) / ΔTm2 pH 7.4 (second transition of double sigmoid melt curve): PBS pH 7.4
T1 construct: made in house
T1 sequence (P54818 43-684): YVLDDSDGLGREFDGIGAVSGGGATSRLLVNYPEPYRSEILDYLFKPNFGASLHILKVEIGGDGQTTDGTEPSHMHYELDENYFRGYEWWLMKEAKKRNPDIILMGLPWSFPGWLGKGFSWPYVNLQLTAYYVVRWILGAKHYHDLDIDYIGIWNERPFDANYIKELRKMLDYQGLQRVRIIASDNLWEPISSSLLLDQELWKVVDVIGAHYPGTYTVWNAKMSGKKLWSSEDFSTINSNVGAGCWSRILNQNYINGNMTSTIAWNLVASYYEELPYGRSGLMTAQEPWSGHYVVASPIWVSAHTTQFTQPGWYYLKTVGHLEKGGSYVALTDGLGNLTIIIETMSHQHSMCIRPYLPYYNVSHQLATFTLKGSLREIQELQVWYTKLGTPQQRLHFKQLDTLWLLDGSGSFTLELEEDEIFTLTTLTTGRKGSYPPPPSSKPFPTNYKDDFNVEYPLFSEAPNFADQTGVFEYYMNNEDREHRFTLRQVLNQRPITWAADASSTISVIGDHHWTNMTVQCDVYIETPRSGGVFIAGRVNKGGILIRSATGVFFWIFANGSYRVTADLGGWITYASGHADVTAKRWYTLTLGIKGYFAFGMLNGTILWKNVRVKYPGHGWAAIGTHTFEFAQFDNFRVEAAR

[2] = biological target: T2, β-galactocerebrosidase (GALC) (Mus musculus, UniProt P54818); assay: GALC enzyme inhibition kinetics, Ki determination with chromogenic substrate 4NβDG; assay type: biochemical; conditions: for times more potent inhibitors of GALC than pyrrolidine DIL and lactam IGL: pH 4.6, ratio of Ki values; for Ki: pH 4.6, substrate 4-nitrophenyl-β-D-galactopyranoside, steady-state, competitive inhibition model
T2 construct: made in house
T2 sequence (P54818 43-684): T1 sequence (P54818 43-684)

[3] = set-up: method as in PMID 11891910; conditions: cited from earlier work
[4] = pKaH and protonation state of azasugars; assay type: physicochemical; conditions: pH 7.4, from pKaH
GALC [5] = biological target: T1, GALC; assay: GALC crystal soaks, X-ray ligand binding in the active site; conditions: 20 mM ligand crystal soak; non-binders repeated for 1 hour and overnight
GALC E258Q = biological target: T3, GALC E258Q (Mus musculus, UniProt P54818, E274Q); assay: DSF thermal shift of GALC E258Q mutant; assay type: binding; conditions: pH 7.4 PBS, 10 mM compound
T3 construct: made in house
T3 sequence (P54818 41-684 E274Q limits assumed): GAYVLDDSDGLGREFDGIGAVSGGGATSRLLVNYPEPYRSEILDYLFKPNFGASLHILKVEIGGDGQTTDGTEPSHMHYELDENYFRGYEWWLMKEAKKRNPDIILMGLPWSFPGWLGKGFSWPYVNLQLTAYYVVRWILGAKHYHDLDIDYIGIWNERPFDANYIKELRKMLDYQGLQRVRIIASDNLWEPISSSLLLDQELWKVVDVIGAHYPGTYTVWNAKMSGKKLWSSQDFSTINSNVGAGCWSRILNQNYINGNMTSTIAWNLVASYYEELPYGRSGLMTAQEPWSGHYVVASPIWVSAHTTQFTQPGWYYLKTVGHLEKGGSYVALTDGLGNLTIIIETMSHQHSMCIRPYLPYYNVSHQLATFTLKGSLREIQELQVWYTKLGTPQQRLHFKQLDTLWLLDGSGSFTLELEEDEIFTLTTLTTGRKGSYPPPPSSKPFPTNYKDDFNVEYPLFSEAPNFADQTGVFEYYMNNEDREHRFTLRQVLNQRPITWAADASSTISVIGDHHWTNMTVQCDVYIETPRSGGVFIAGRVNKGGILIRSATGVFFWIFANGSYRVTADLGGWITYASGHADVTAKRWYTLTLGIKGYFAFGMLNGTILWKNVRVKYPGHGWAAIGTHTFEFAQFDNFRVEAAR
From the text: All molecules form stabilizing hydrogen bonds with the side chain of E258 in the active site (Fig. 8A). […] Thus E258 O^ε2 could be forming a tight electrostatic interaction with the charged nitrogen in the ring of these molecules. Mutation of E258 to glutamine allows for the maintenance of a hydrogen bond but not an electrostatic interaction. We expressed and purified the E258Q mutant and repeated the DSF experiments at both pH 4.6 and pH 7.4. The importance of this interaction between E258 and the candidate chaperone molecules is highlighted by the complete loss of stabilization of GALC E258Q at pH 4.6 by all molecules except lactam IGL, which is incapable of forming a salt bridge (Fig. 8B). At pH 7.4, the global stability conferred by piperidine IGF to the E258Q mutant has lost the double sigmoid features seen for the wild-type GALC at pH 7.4 (Fig. 4A and 8C). […] To further understand the nature of the GALC–IGF interaction that is conferring the double melt curve we carried out DSF experiments at a range of pH values. […]
DSF experiments were performed in 48-well plates, 50 μL reactions comprised 5.0 μg GALC and 5× SyPRO Orange dye in either PBS pH 7.4, 20 mM Tris pH 7.4 or 20 mM sodium acetate pH 4.6. […] SyPRO fluorescence was monitored on the HEX channel. […] Stabilization is expressed as the ΔT m compared to a protein-only control. […]

[6] = 50 mM, Fig. S2, pH 4.6 and pH 7.4
[7] = PBS pH 7.4, mean ± SEM, read-out: ΔTm pH 7.4
[8] = sodium acetate pH 4.6, mean ± SEM, read-out: ΔTm pH 4.6

O=CC[C@@H](O)[C@@H](O)[C@H](O)CO [2-deoxy-galactose, reference compound]
stabilization of GALC (GALC [1]; [6]): no stabilization

OC[C@H]1NNC[C@@H](O)[C@H]1O [AGF, aza-galacto-fagomine]
times more potent inhibitors of GALC than pyrrolidine DIL and lactam IGL [2]: greater than 80 times
Ki [2]: 0.63 ± 0.053 µM
pKaH [3]: 5.7
ΔTm at 5000 µM (GALC [1]; [7]): 4.6 °C
ΔTm at 5000 µM (GALC [1]; [8]): 16.4 °C
additional increase of Tm over DGJ, DIL and IGL (GALC [1]): 8–9 degrees
molecules possessing a positive charge at pH 7.4 [4]: 2%

CN1[C@@H](CC(=O)c2ccccc2)CCC[C@H]1C[C@H](O)c1ccccc1 [α-lobeline, reference compound]
binding in GALC crystals (difference electron density in active site) (GALC [5]): not observed to bind
change in Tm (GALC [1]; either pH (4.6 or 7.4), data not shown): No change in T m

OC[C@H]1NC[C@H](O)[C@@H](O)[C@@H]1O [DNJ, 1-deoxynojirimycin, reference compound]
stabilization of GALC (GALC [1]; up to 10 mM, either pH (4.6 or 7.4), Fig. S2): unable to stabilize GALC

O=C1NC[C@H](CO)[C@H](O)[C@@H]1O [IGL, iso-galacto-fagomine lactam]
Ki [2]: 52 ± 3 µM
ΔTm at 5000 µM (GALC [1]; [7]): 1.6 °C
ΔTm at 5000 µM (GALC [1]; [8]): 8.1 °C
increase of Tm of wild-type enzyme (GALC [1]): 6–8 degrees

OC[C@H]1NC[C@@H](O)[C@H]1O [DIL]
Ki [2]: 130 ± 6 µM
ΔTm at 5000 µM (GALC [1]; [7]): 4 °C
ΔTm at 5000 µM (GALC [1]; [8]): 7.2 °C
increase of Tm of wild-type enzyme (GALC [1]): 6–8 degrees

OCC1C2CCC(N2)C(O)C1O (stereo not shown) [DGN, deoxy-galacto-noeurostegine]
ΔTm at 5000 µM (GALC [1]; [7]): -3.6 ± 0.1 °C
ΔTm at 5000 µM (GALC [1]; [8]): 1 °C
effect on global stability of wild-type GALC (GALC [1]; pH 7.4): destabilized GALC

OC[C@H]1OC(O)[C@H](O)[C@@H](O)[C@H]1O (mixture of isomers) [galactose, reference compound]
Ki [2]: 7200 µM
stabilization of GALC (GALC [1]; [6]): no stabilization

OC[C@H]1CNC[C@@H](O)[C@H]1O [IGF, iso-galacto-fagomine]
times more potent inhibitors of GALC than pyrrolidine DIL and lactam IGL [2]: greater than 80 times
Ki [2]: 0.38 ± 0.026 µM
pKaH [3]: 8.8
ΔTm1 pH 7.4 (first transition of double sigmoid melt curve) (GALC [1]): 4 °C
ΔTm2 pH 7.4 (second transition of double sigmoid melt curve) (GALC [1]): 21 °C
ΔTm1 pH 7.4 (first transition of double sigmoid melt curve) (GALC [1]; listed as IGF1): +4.0 ± 0.3 °C
ΔTm2 pH 7.4 (second transition of double sigmoid melt curve) (GALC [1]; listed as IGF2): +21.0 ± 0.2 °C
ΔTm at 5000 µM (GALC [1]; [8]): 17.7 °C
additional increase of Tm over DGJ, DIL and IGL (GALC [1]): 8–9 degrees
molecules possessing a positive charge at pH 7.4 [4]: 96%
higher Tm2 with GALC E258Q (GALC E258Q): abolished

OCC1NCC(O)C(O)C1O (stereo not shown) [DGJ, 1-deoxy-galacto-nojirimycin, reference compound]
ΔTm at 5000 µM (GALC [1]; [7]): 5.2 °C
increase of Tm of wild-type enzyme (GALC [1]): 6–8 degrees
